Test results: ChEMBL document CHEMBL1154324, “Activity of mangosteen xanthones and teleocidin a-2 in death receptor expression enhancement and tumor necrosis factor related apoptosis-inducing ligand assays” (J Nat Prod, 2010)

Target: Tumor necrosis factor receptor superfamily member 10B (Homo sapiens) (UniProt O14763)
Assay: Induction of DR5 promoter activity in SacI gene expressing human DLD1 cells at 10 to 30 uM after 24 hrs by luciferase reporter gene assay relative to control
Format: cell-based
Details: DLD-1

Chain of Tumor necrosis factor receptor superfamily member 10B (Homo sapiens) (O14763 whole entry): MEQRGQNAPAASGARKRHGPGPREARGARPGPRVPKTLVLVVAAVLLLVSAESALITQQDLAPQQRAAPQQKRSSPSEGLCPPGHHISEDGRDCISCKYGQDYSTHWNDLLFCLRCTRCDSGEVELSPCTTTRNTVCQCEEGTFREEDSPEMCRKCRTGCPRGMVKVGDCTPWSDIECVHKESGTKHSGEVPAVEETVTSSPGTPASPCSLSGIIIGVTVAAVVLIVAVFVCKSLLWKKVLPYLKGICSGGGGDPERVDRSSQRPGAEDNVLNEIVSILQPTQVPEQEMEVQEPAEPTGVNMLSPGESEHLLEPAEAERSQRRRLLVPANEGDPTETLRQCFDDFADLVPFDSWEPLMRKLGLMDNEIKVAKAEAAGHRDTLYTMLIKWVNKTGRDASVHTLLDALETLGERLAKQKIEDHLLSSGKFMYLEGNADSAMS

Row | Compound | fold change (FC)
1 | CC(C)=CCc1c(O)c(CC=C(C)C)c2oc3c(O)ccc(O)c3c(=O)c2c1O | 3.1
2 | COc1c(O)cc2oc3cc4c(c(O)c3c(=O)c2c1CC=C(C)C)C=CC(C)(C)O4 | 4
3 | COc1c(O)cc2oc3cc(O)c(CC=C(C)C)c(O)c3c(=O)c2c1CC=C(C)C | 3.8
